Results taken from the supplement of paper PMC10331698.
± gives the standard deviation of the averaged measurements.

Experiments:
Experiment in all cases: level (log10 ratio to DMSO vehicle control); higher = higher biomarker level / cell amount than vehicle control
Settings in all cases: in DMSO
[1] = compound: OCC(F)(F)C(F)(F)C(F)(F)C(F)(F)C(F)(F)C(F)F [1H,1H,7H-Dodecafluoro-1-heptanol]
Method: (§1)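 BioMAP Diversity Plus panel of 12 human primary cell co-culture systems (3C, 4H, LPS, SAg, BT, BF4T, BE3C, CASM3C, HDF3CGF, KF3CT, MyoF, Mphg). Compounds were added 1 h before stimulation and left for 24 h (MyoF 48 h; BT 72 h for soluble read-outs or 6 d for IgG). Biomarkers were read by ELISA, cytotoxicity by SRB, PBMC viability and proliferation by Alamar Blue. Each well value was divided by the mean of 8 DMSO control wells on the same plate and log10 transformed; duplicate blinded samples were tested at 4 concentrations.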

[2] = compound: O=C(O)CCC(F)(F)C(F)(F)C(F)(F)F [3:3 Fluorotelomer carboxylic acid]
Method: as §1

[3] = compound: FC(F)(F)C(F)(F)C(F)(F)C(F)(F)C(F)(F)C(F)(F)C(F)(F)CCI [1-Iodo-1H,1H,2H,2H-perfluorononane]
Method: as §1

Row | Test System | level (log10) ([1]; 6700 nM) | level (log10) ([1]; 20000 nM) | level (log10) ([1]; 60000 nM) | level (log10) ([2]; 6700 nM) | level (log10) ([2]; 20000 nM) | level (log10) ([2]; 60000 nM) | level (log10) ([3]; 6700 nM) | level (log10) ([3]; 20000 nM)
1 | 3C:CD141/Thrombomodulin | -0.007 ± 0.057 | 0.0065 ± 0.044 | -0.017 ± 0.058 | -0.0105 ± 0.011 | -0.018 ± 0.047 | -0.006 ± 0.013 | -0.028 ± 0.0014 | -0.01 ± 0.041
2 | lMphg:CD69 | -0.0275 ± 0.0021 | -0.0305 ± 0.0064 | -0.018 ± 0.075 | 0.013 ± 0.013 | 0.053 ± 0.047 | 0.035 ± 0.037 | -0.0025 ± 0.023 | -0.053 ± 0.076
3 | lMphg:CCL2/MCP-1 | -0.011 ± 0.014 | -0.009 ± 0.024 | 0.0115 ± 0.035 | -0.012 ± 0.02 | -0.01 ± 0.018 | 0.017 ± 0.02 | -0.014 ± 0.0071 | 0.0385 ± 0.032
4 | BE3C:Keratin 8/18 | -0.004 ± 0.0042 | 0.006 ± 0.014 | -0.0135 ± 0.0035 | 0.0025 ± 0.0021 | -0.003 ± 0.0042 | -0.023 ± 0.0057 | -0.005 ± 0.017 | -0.007 ± 0.0085
5 | lMphg:IL-1alpha | -0.0255 ± 0.056 | -0.0275 ± 0.079 | -0.0735 ± 0.18 | -0.0005 ± 0.11 | 0 ± 0.057 | 0.028 ± 0.059 | -0.012 ± 0.014 | 0.055 ± 0.045
6 | HDF3CGF:TIMP-1 | -0.015 ± 0.027 | -0.0055 ± 0.033 | 0.011 ± 0.044 | 0.0025 ± 0.019 | 0.004 | 0.0015 ± 0.0035 | -0.0035 ± 0.0035 | 0.047 ± 0.0085
7 | CASM3C:Serum Amyloid A | -0.019 ± 0.045 | -0.01 ± 0.031 | -0.0275 ± 0.037 | -0.0055 ± 0.029 | -0.004 ± 0.0042 | -0.0005 ± 0.032 | -0.007 ± 0.031 | 0.0135 ± 0.076
8 | HDF3CGF:Proliferation 72hr | 0.0045 ± 0.066 | 0 ± 0.072 | 0.003 ± 0.044 | -0.0095 ± 0.015 | 0.0385 ± 0.0092 | 0.021 ± 0.027 | -0.689 ± 0.0092 | -0.815 ± 0.25
9 | MyoF:Collagen III | -0.0095 ± 0.0035 | -0.012 | -0.015 ± 0.0071 | -0.0125 ± 0.005 | -0.005 ± 0.011 | -0.0145 ± 0.0064 | 0.0145 ± 0.0021 | -0.0055 ± 0.03
10 | KF3CT:CXCL9/MIG | 0.0135 ± 0.012 | 0.0065 ± 0.0035 | 0.0015 ± 0.018 | 0 ± 0.0099 | 0.0055 ± 0.015 | 0.005 ± 0.0028 | 0.0045 ± 0.00071 | -0.01 ± 0.025
11 | CASM3C:SRB | -0.0045 ± 0.00071 | -0.006 ± 0.0028 | -0.0015 ± 0.0021 | 0.005 ± 0.016 | 0.002 ± 0.014 | -0.0055 ± 0.011 | -0.0025 ± 0.0021 | -0.0015 ± 0.0064
12 | MyoF:MMP-1 | -0.025 ± 0.035 | -0.029 ± 0.021 | -0.0015 ± 0.012 | -0.0385 ± 0.052 | -0.0305 ± 0.013 | 0.01 ± 0.028 | -0.012 ± 0.013 | -0.0145 ± 0.025
13 | CASM3C:CD87/uPAR | -0.001 ± 0.016 | 0.0035 ± 0.021 | -0.0055 ± 0.023 | -0.01 ± 0.0071 | 0.002 ± 0.011 | -0.01 ± 0.018 | -0.0105 ± 0.028 | -0.013 ± 0.028
14 | HDF3CGF:SRB | -0.0345 ± 0.033 | -0.007 ± 0.05 | -0.0055 ± 0.057 | 0.029 ± 0.061 | 0.0105 ± 0.0078 | 0.011 ± 0.05 | 0.016 ± 0.045 | -0.052 ± 0.071
15 | MyoF:Collagen I | 0.0055 ± 0.012 | -0.0175 ± 0.018 | 0.003 ± 0.023 | -0.0005 ± 0.037 | 0.0095 ± 0.0035 | 0.0255 ± 0.026 | 0.007 ± 0.0042 | -0.015 ± 0.028
16 | MyoF:CXCL8/IL-8 | -0.034 ± 0.051 | 0 ± 0.1 | 0.0265 ± 0.063 | -0.016 ± 0.037 | -0.0275 ± 0.05 | 0.0145 ± 0.093 | 0.0195 ± 0.0064 | 0.0335 ± 0.025
17 | KF3CT:CXCL10/IP-10 | 0.004 | 0 ± 0.0014 | -0.0055 ± 0.005 | -0.0015 ± 0.0035 | -0.008 ± 0.0057 | -0.0045 ± 0.0035 | -0.0065 ± 0.005 | -0.0235 ± 0.0092
18 | KF3CT:PAI-I | -0.0075 ± 0.0092 | -0.0035 ± 0.011 | 0 ± 0.0042 | -0.009 ± 0.031 | -0.0125 ± 0.0021 | -0.004 ± 0.0071 | 0.0115 ± 0.022 | 0.017 ± 0.021
